The structures appear in SMILES notation. Where only a bound is given, the exact number is not on record here.

In this experiment the target is T1, hM5 (Homo sapiens, UniProt P08912).
T1 construct: expressed in transfected cells
T1 sequence (P08912 1-532): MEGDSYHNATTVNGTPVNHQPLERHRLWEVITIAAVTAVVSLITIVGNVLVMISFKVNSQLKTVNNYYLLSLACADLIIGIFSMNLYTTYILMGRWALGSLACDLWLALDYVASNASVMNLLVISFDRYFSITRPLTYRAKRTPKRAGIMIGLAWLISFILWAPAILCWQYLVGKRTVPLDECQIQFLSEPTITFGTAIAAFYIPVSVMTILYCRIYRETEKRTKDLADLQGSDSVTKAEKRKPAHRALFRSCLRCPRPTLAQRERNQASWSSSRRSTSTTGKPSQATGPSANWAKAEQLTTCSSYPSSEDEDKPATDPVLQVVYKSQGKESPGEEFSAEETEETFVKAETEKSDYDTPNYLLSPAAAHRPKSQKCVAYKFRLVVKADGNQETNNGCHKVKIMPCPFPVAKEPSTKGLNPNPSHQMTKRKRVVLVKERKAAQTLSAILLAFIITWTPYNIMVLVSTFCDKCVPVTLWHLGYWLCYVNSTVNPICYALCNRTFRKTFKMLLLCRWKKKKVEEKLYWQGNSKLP
Briefly: Calcium mobilization concentration-response (IC50 vs EC80 acetylcholine), CHO hM5. The experiment is classed as cell-based. Particulars: CELL LINE hM5; vs EC80 acetylcholine; read-out: IC50. Put shortly: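 IC50 values derive from percent maximal acetylcholine response after an EC80 ACh addition, measured as kinetic calcium fluorescence (static ratio, max−min). Test compounds were added 140 s before agonist. Cells: stable hM5-CHO in HEPES-buffered HBSS with 2.5 mM probenecid, pH 7.4; ≥3 independent triplicate determinations.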
Turning to `Cc1cc2ncnn2cc1C1CCN(S(=O)(=O)c2cnc3sccn23)CC1` [Compound 526, 5-((4-(7-methyl-[1,2,4]triazolo[1,5-a]pyridin-6-yl)piperidin-1-yl)sulfonyl)imidazo[2,1-b]thiazole], the IC50 was determined as 14 nM. Consider `[2H]C1([2H])CC(c2cn3ncnc3c(F)c2C)CC([2H])([2H])N1S(=O)(=O)c1cc(C)ns1` [Compound 527, 5-((4-(8-fluoro-7-methyl-[1,2,4]triazolo[1,5-a]pyridin-6-yl)piperidin-1-yl-2,2,6,6-d4)sulfonyl)-3-methylisothiazole], for which the IC50 turned out to be 58 nM. To `[2H]C1([2H])CC(c2cn3ncnc3cc2F)CC([2H])([2H])N1S(=O)(=O)c1cc(C)ns1` [Compound 528, 5-((4-(7-fluoro-[1,2,4]triazolo[1,5-a]pyridin-6-yl)piperidin-1-yl-2,2,6,6-d4)sulfonyl)-3-methylisothiazole] belongs 595 nM; to `Cc1cc2ncnn2cc1C1CCN(S(=O)(=O)c2cnn(C)c2CN)CC1` [Compound 529, (1-methyl-4-((4-(7-methyl-[1,2,4]triazolo[1,5-a]pyridin-6-yl)piperidin-1-yl)sulfonyl)-1H-pyrazol-5-yl)methanamine], 371 nM; to `Cn1ncc(S(=O)(=O)N2CCC(c3cn4ncnc4cc3F)CC2)c1CN` [Compound 530, (4-((4-(7-fluoro-[1,2,4]triazolo[1,5-a]pyridin-6-yl)piperidin-1-yl)sulfonyl)-1-methyl-1H-pyrazol-5-yl)methanamine], more than 10000 nM. As for `O=S(=O)(c1cnc2sccn12)N1CCC(c2cn3ncnc3cc2Cl)CC1` [Compound 531, 5-((4-(7-chloro-[1,2,4]triazolo[1,5-a]pyridin-6-yl)piperidin-1-yl)sulfonyl)imidazo[2,1-b]thiazole], the IC50 amounted to 6 nM. The figure for `O=S(=O)(c1cnc(Cl)s1)N1CCC(c2cn3ncnc3cc2Cl)CC1` [Compound 532, 2-chloro-5-((4-(7-chloro-[1,2,4]triazoto[1,5-a]pyridin-6-yl)piperidin-1-yl)sulfonyl)thiazole] is 172 nM. Take `Cc1c(C2CCN(S(=O)(=O)c3cnc4sccn34)CC2)cn2ncnc2c1F` [Compound 533, 5-((4-(8-fluoro-7-methyl-[1,2,4]triazolo[1,5-a]pyridin-6-yl)piperidin-1-yl)sulfonyl)imidazo[2,1-b]thiazole]: the IC50 amounted to 9 nM. As to `Cc1c(C2CCN(S(=O)(=O)c3cnc(Cl)s3)CC2)cn2ncnc2c1F` [Compound 534, 2-chloro-5-((4-(8-fluoro-7-methyl-[1,2,4]triazolo[1,5-a]pyridin-6-yl)piperidin-1-yl)sulfonyl)thiazole], the IC50 stood at 1650 nM. As to `Cc1cc2ncnn2nc1C1CCN(S(=O)(=O)c2cnc3sccn23)CC1` [Compound 535, 5-((4-(7-methyl-[1,2,4]triazolo[1,5-b]pyridazin-6-yl)piperidin-1-yl)sulfonyl)imidazo[2,1-b]thiazole], the IC50 was found to be 133 nM. To `Cc1cc2ncnn2nc1C1CCN(S(=O)(=O)c2cnc(Cl)s2)CC1` [Compound 536, 2-chloro-5-((4-(7-methyl-[1,2,4]triazolo[1,5-b]pyridazin-6-yl)piperidin-1-yl)sulfonyl)thiazole] belongs 9510 nM. In the case of `[2H]C1([2H])CC(c2cn3ncnc3c(F)c2C)CC([2H])([2H])N1S(=O)(=O)c1cnc2sccn12` [Compound 537, 5-((4-(8-fluoro-7-methyl-[1,2,4]triazolo[1,5-a]pyridin-6-yl)piperidin-1-yl-2,2,6,6-d4)sulfonyl)imidazo[2,1-b]thiazole], the IC50 is 11 nM.

Turning to `[2H]C1([2H])CC(c2cn3ncnc3cc2F)CC([2H])([2H])N1S(=O)(=O)c1cnc2sccn12` [Compound 538, 5-((4-(7-fluoro-[1,2,4]triazolo[1,5-a]pyridin-6-yl)piperidin-1-yl-2,2,6,6-d4)sulfonyl)imidazo[2,1-b]thiazole], the IC50 was 125 nM. Regarding `Cc1nnc(S(=O)(=O)N2CCC(c3cn4ncnc4cc3C)CC2)s1` [Compound 539, 2-methyl-5-((4-(7-methyl-[1,2,4]triazolo[1,5-a]pyridin-6-yl)piperidin-1-yl)sulfonyl)-1,3,4-thiadiazole], the IC50 is 31 nM. For `Cc1nnc(S(=O)(=O)N2CCC(c3cn4ncnc4cc3Cl)CC2)s1` [Compound 540, 2-((4-(7-Chloro[1,2,4]triazolo[1,5-a]pyridin-6-yl)piperidin-1-yl)sulfonyl)-5-methyl-1,3,4-thiadiazole], the IC50 amounted to 28 nM. The figure for `Cn1cnnc1S(=O)(=O)N1CCC(c2cn3ncnc3cc2Cl)CC1` [Compound 541, 7-chloro-6-(1-((4-methyl-4H-1,2,4-triazol-3-yl)sulfonyl)piperidin-4-yl)-[1,2,4]triazolo[1,5-a]pyridine] is 261 nM; for `Cc1c(C2CCN(S(=O)(=O)c3nncn3C)CC2)cn2ncnc2c1F` [Compound 542, 8-fluoro-7-methyl-6-(1-((4-methyl-4H-1,2,4-triazol-3-yl)sulfonyl)piperidin-4-yl)-[1,2,4]triazolo[1,5-a]pyridine] it is 1710 nM; for `CC(=O)NCc1c(S(=O)(=O)N2CCC(c3cn4ncnc4cc3C)CC2)cnn1C` [Compound 543, N-((1-methyl-4-((4-(7-methyl-[1,2,4]triazolo[1,5-a]pyridin-6-yl)piperidin-1-yl)sulfonyl)-1H-pyrazol-5-yl)methyl)acetamide] it is more than 10000 nM. The figure for `O=S(=O)(c1cnn2ccccc12)N1CCC(c2cn3ncnc3cc2Cl)CC1` [Compound 544, 7-chloro-6-(1-(pyrazolo[1,5-a]pyridin-3-ylsulfonyl)piperidin-4-yl)-[1,2,4]triazolo[1,5-a]pyridine] is 15 nM; for `Cc1c(C2CCN(S(=O)(=O)c3cnn4ccccc34)CC2)cn2ncnc2c1F` [Compound 545, 8-fluoro-7-methyl-6-(1-(pyrazolo[1,5-a]pyridin-3-ylsulfonyl)piperidin-4-yl)-[1,2,4]triazolo[1,5-a]pyridine] it is 33 nM. `Cc1cc2ncnn2nc1C1CCN(S(=O)(=O)c2cnn3ccccc23)CC1` [Compound 546, 7-methyl-6-(1-(pyrazolo[1,5-a]pyridin-3-ylsulfonyl)piperidin-4-yl)-[1,2,4]triazolo[1,5-b]pyridazine]: the IC50 was 534 nM. The figure for `[2H]C1([2H])CC(c2cn3ncnc3cc2C)CC([2H])([2H])N1S(=O)(=O)c1cnn(C)c1C#N` [Compound 547, 1-methyl-4-((4-(7-methyl-[1,2,4]triazolo[1,5-a]pyridin-6-yl)piperidin-1-yl-2,2,6,6-d4)sulfonyl)-1H-pyrazole-5-carbonitrile] is 10 nM; for `Cc1cc(N(C)C)ncc1C1CCN(S(=O)(=O)c2cnn(C)c2C)CC1` [Compound 550, 5-(1-((1,5-dimethyl-1H-pyrazol-4-yl)sulfonyl)piperidin-4-yl)-N,N,4-trimethylpyridin-2-amine] it is 9 nM. The figure for `Cc1cc(N(C)C)ncc1C1CCN(S(=O)(=O)c2cnn(C)c2Cl)CC1` [Compound 551, 5-(1-((5-chloro-1-methyl-1H-pyrazol-4-yl)sulfonyl)piperidin-4-yl)-N,N,4-trimethylpyridin-2-amine] is 7 nM; for `Cc1ncc(S(=O)(=O)N2CCC(c3cnc(N(C)C)cc3C)CC2)s1` [Compound 552, N.N,4-trimethyl-5-(1-((2-methylthiazol-5-yl)sulfonyl)piperidin-4-yl)pyridin-2-amine] it is 94 nM. Regarding `COCC(=O)NCc1c(S(=O)(=O)N2CCC(c3cn4ncnc4cc3F)CC2)cnn1C` [Compound 553, N-((4-((4-(7-fluoro-[1,2,4]triazoto[1,5-a]pyridin-6-yl)piperidin-1-yl)sulfonyl)-1-methyl-1H-pyrazol-5-yl)methyl)-2-methoxyacetamide], the IC50 is more than 10000 nM. To `Cc1cc2ncnn2cc1C1CCN(S(=O)(=O)c2cnn(C)c2CNC(=O)c2ccccn2)CC1` [Compound 554, N-((1-Methyl-4-((4-(7-methyl-[1,2,4]triazolol[1,5-a]pyridin-6-yl)piperidin-1-yl)sulfonyl)-1H-pyrazol-5-yl)methyl)picolinamide] belongs 736 nM.

As for `Cn1ncc(S(=O)(=O)N2CCC(c3c(C(F)(F)F)nc4n3CCCC4)CC2)c1Cl` [Compound 555, 3-(1-((5-chloro-1-methyl-1H-pyrazol-4-yl)sulfonyl)piperidin-4-yl)-2-(trifluoromethyl)-5,6,7,8-tetrahydroimidazo[1,2-a]pyridine], the IC50 is more than 10000 nM. As for `Cc1nnc(S(=O)(=O)N2CCC(c3cn4ncnc4cc3C(F)F)CC2)s1` [Compound 556, 2-((4-(7-(difluoromethyl)-[1,2,4]triazolo[1,5-a]pyridin-6-yl)piperidin-1-yl)sulfonyl)-5-methyl-1,3,4-thiadiazole], the IC50 is 342 nM.

As to `Cn1cc(S(=O)(=O)N2CCC(c3cn4ncnc4cc3Cl)CC2)nn1` [Compound 557, 7-chloro-6-(1-((1-methyl-1H-1,2,3-triazol-4-yl)sulfonyl)piperidin-4-yl)-[1,2,4]triazolo[1,5-a]pyridine], the IC50 came to 25 nM.

As to `Cc1c(C2CCN(S(=O)(=O)c3cn(C)nn3)CC2)cn2ncnc2c1F` [Compound 558, 8-fluoro-7-methyl-6-(1-((1-methyl-1H-1,2,3-triazol-4-yl)sulfonyl)piperidin-4-yl)-[1,2,4]triazoto[1,5-a]pyridine], the IC50 turned out to be 235 nM.
